Each structure is given as a SMILES string.

In general, IC50 refers to the midpoint of a concentration-inhibition curve. Read a high IC50 as a need for much substance.

The first assay addresses T1, MMP-13CD (catalytic domain of collagenase 3) (Homo sapiens, UniProt P45452). Briefly: biochemical.
Conditions: not given
Take `O=C(NCc1ccc2c(c1)OCO2)c1ccc2[nH]c(=S)n(Cc3ccccc3)c(=O)c2c1` [3-Benzyl-4-oxo-2-thioxo-1,2,3,4-tetrahydroquinazoline-6-carboxylic acid (benzo[1,3]dioxol-5-ylmethyl)amide]: the IC50 was found to be 14 nM.

`O=C(OCc1ccc2c(c1)OCO2)c1ccc2[nH]c(=O)n(Cc3ccccc3)c(=O)c2c1` [Synthesis Example 45, Benzo[1,3]dioxol-5-ylmethyl 3-benzyl-2,4-dioxo-1,2,3,4-tetrahydroquinazoline-6-carboxylate] registered an IC50 of 7 nM.

In turn, `Cn1c(=O)n(Cc2ccccc2)c(=O)c2cc(C(=O)OCc3ccc4c(c3)OCO4)ccc21` [Synthesis Example 46, Benzo[1,3]dioxol-5-ylmethyl 3-benzyl-1-methyl-2,4-dioxo-1,2,3,4-tetrahydroquinazoline-6-carboxylate] yielded a concentration for half-maximal inhibition (IC50) of 2.5 nM.

Turning to `O=C(OCc1ccncc1)c1ccc2[nH]c(=O)n(Cc3cccs3)c(=O)c2c1` [Synthesis Example 47, 4-Pyridylmethyl 2,4-dioxo-3-thien-2-ylmethyl-1,2,3,4-tetrahydroquinazoline-6-carboxylate], the IC50 amounted to 16 nM.

The compound `Cn1c(=O)n(Cc2ccccc2)c(=O)c2cc(C(=O)NCc3ccc4c(c3)OCO4)cnc21` [Synthesis Example 49, 3-Benzyl-1-methyl-2,4-dioxo-1,2,3,4-tetrahydro-pyrido[2,3-d]pyrimidine-6-carboxylic acid (1,3-benzodioxol-5-ylmethyl)-amide] yielded a 50% inhibitory concentration (IC50) of 7 nM.

On to `COc1ccc(CNC(=O)c2cnc3c(c2)c(=O)n(Cc2ccc(C(=O)O)cc2)c(=O)n3C)cc1` [Synthesis Example 50, 4-[6-(4-Methoxy-benzylcarbamoyl)-1-methyl-2,4-dioxo-1,4-dihydro-2H-pyrido[2,3-d]pyrimidin-3-ylmethyl]-benzoic acid], for which the IC50 came out at 1.6 nM.

In turn, `COc1ccc(CNC(=O)c2cnc3c(c2)c(=O)n(Cc2ccc(C#N)cc2)c(=O)n3C)cc1` [Synthesis Example 51, 3-(4-Cyano-benzyl)-1-methyl-2,4-dioxo-1,2,3,4-tetrahydro-pyrido[2,3-d]pyrimidine-6-carboxylic acid 4-methoxy-benzylamide] returned an IC50 of 16 nM. Against the preceding compound, the IC50 is about 10-fold higher.

As to `COc1ccc(CNC(=O)c2cnc3c(c2)c(=O)n(Cc2ccc(F)cc2)c(=O)n3C)cc1` [Synthesis Example 52, 3-(4-Fluoro-benzyl)-1-methyl-2,4-dioxo-1,2,3,4-tetrahydro-pyrido[2,3-d]pyrimidine-6-carboxylic acid 4-methoxy-benzylamide], 32 nM corresponded to half-maximal inhibition (IC50).

`Cn1c(=O)n(Cc2ccccc2)c(=O)c2cc(C(=O)NCc3ccc4c(c3)OCO4)ncc21` [Synthesis Example 53, 3-Benzyl-1-methyl-2,4-dioxo-1,2,3,4-tetrahydro-pyrido[3,4-d]pyrimidine-6-carboxylic acid (1,3-benzodioxol-5-ylmethyl)-amide] had an IC50 of 1 nM.

Take `COC(=O)c1ccc(Cn2c(=O)c3cc(C(=O)NCc4ccc(OC)cc4)ncc3n(C)c2=O)cc1` [Synthesis Example 54, Methyl 4-[6-(4-Methoxy-benzylcarbamoyl)-1-methyl-2,4-dioxo-1,4-dihydro-2H-pyrido[3,4-d]pyrimidin-3-ylmethyl]-benzoate]: half-maximal inhibition (IC50) was put at 1.7 nM.

A further assay concerns the target T1, MMP-13CD (catalytic domain of collagenase 3). Briefly: Thiopeptolide hydrolysis assay, MMP-13.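 Further: inhibition of enzymatic thiopeptolide substrate cleavage (100 µM) in pH 6.0 MES buffer with CaCl2 and DTNB, comparing hydrolysis with versus without inhibitor.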 Conditions: MMP13 IC50 μM, Table IVb.
In turn, `O=C(NCc1ccc2c(c1)OCO2)c1ccc2[nH]c(=S)n(Cc3ccccc3)c(=O)c2c1` [3-Benzyl-4-oxo-2-thioxo-1,2,3,4-tetrahydroquinazoline-6-carboxylic acid (benzo[1,3]dioxol-5-ylmethyl)amide] registered a 50% inhibitory concentration (IC50) of 0.014 µM.

The values above are taken from patent publication US20050004126A1 (priority 2001, published 2005).
